We go through 42 compounds from patent US5602161A, “Tetrazolylphenyl pivalate derivatives and medicinal composition containing the same as effective component” (Wakamoto Pharmaceutical Co., Ltd., priority 1994, dated 1997).

Where a name gives a salt, the structure may show the parent alone.

This test concerns the target T1, human sputum elastase (Homo sapiens, UniProt P08246).
T1 sequence (P08246 30-247 limits assumed): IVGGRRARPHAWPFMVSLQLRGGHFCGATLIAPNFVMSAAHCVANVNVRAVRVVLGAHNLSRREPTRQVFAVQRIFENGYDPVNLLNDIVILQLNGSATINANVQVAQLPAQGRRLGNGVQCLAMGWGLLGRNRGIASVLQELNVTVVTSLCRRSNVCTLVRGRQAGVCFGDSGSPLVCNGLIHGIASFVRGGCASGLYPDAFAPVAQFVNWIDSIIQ
Briefly: Inhibitory effect on elastase (human sputum), spectrophotometric assay with MeOSuc-Ala-Ala-Pro-Val-pNA. Format: biochemical. The note with it: S: human sputum elastase; pH 8.0, 37° C.; read-out: IC50.
Protocol: Namely, it is a spectrophotometric assay using the synthesized substrate, methoxysuccinyl-alanyl-alanyl- prolyl-valyl-p-nitroanilide(MeOSuc-Ala-Ala-Pro-Val-pNA, Cambridge research biochemical Co.) which has high specificity on neutrophil elastase.
20 μl of a test compound of various concentrations and 20 μl of enzyme solution (13 unit/ml) were added to 400 μl of 0.1M sodium phosphate buffer (pH 8.0). The mixture was incubated at 37° C. for 5 min, and then 20 μl of the substrate was added to the mixture in a final volume of 460 μl. The reaction was conducted by incubating thus obtained mixture at 37° C. for 20 min. The reaction was stopped by the addition of 300 μl of 20% acetic acid into the reaction mixture, and then p-nitroanilide released was measured by the spectrophotometrically at 405 nm.
Inhibition percents of the test compounds were calculated by the following equation:
Inhibition %=[1-(OD 405 nm value of the testing sample-background)/(OD 405 nm value of the control-background)]×100
As a reminder, the IC50 is the concentration needed to halve the response being measured. For `CC(C)(C)C(=O)Oc1ccc(-c2nnn(Cc3ccc(N)cc3)n2)cc1` [Example 76, 4-[2-(4-Aminobenzyl)tetrazol-5-yl]phenyl pivalate], the IC50 worked out at 180 nM.

For `CC(C)(C)C(=O)Oc1ccc(-c2nnn(Cc3ccccc3OCC(=O)O)n2)cc1` [Example 81, 2-[5-(4-Pivaloyloxyphenyl)tetrazol-2-ylmethyl]phenoxyacetic acid], the 50% inhibitory concentration (IC50) was found to be 59 nM.

As for `CCN(C)c1ccc(Cn2nnc(-c3ccc(OC(=O)C(C)(C)C)cc3)n2)cc1` [Example 97, 4-[2-[4-(Ethylmethylamino)benzyl]tetrazol-5-yl]phenyl pivalate], the IC50 was found to be 150 nM.

For `CC(C)c1ccc(Cn2nnnc2-c2ccc(OC(=O)C(C)(C)C)cc2)cc1` [Example 96, 4-[1-(4-Isopropylbenzyl)tetrazol-5-yl]phenyl pivalate], the IC50 was determined as 140 nM.

As for `CN(C)c1cc(-c2nnn(Cc3ccc(C(=O)O)cc3)n2)ccc1OC(=O)C(C)(C)C` [Example 8, 4-[5-(3-Dimethylamino-4-pivaloyloxyphenyl)tetrazol-2-ylmethyl]benzoic acid], the IC50 was found to be 230 nM.

On to `Cc1cc(-c2nnn(Cc3ccc(C(=O)O)cc3)n2)ccc1OC(=O)C(C)(C)C` [Example 55, 4-[5-(3-Methyl-4-pivaloyloxyphenyl)tetrazol-2-ylmethyl]benzoic acid], for which the IC50 is 1000 nM.

As to `C[C@H](NC(=O)c1ccc(Cn2nnc(-c3ccc(OC(=O)C(C)(C)C)cc3)n2)cc1)C(=O)O` [Example 57, N-[4-[5-(4-Pivaloyloxyphenyl)tetrazol-2-ylmethyl]benzoyl]-L-alanine], the IC50 was 420 nM.

As for `CC(C)(C)C(=O)Oc1ccc(-c2nnn(Cc3ccc(C(=O)NCCN)cc3)n2)cc1` [Example 71, N-(2-Aminoethyl)-4-[5-(4-pivaloyloxyphenyl)tetrazol-2-ylmethyl]benzamide Hydrochloride], the IC50 was found to be 260 nM.

In the case of `CNc1ccc(Cn2nnc(-c3ccc(OC(=O)C(C)(C)C)cc3)n2)cc1` [Example 90, 4-[2-(4-Methylaminobenzyl)tetrazol-5-yl]phenyl pivalate], the 50% inhibitory concentration (IC50) amounted to 110 nM.

Turning to `CC(C)(C)C(=O)Oc1ccc(-c2nnn(Cc3ccc(C(=O)N[C@@H](Cc4ccccc4)C(=O)O)cc3)n2)cc1`, the IC50 stood at 58 nM.

As to `CC(C)(C)C(=O)Oc1ccc(-c2nnn(Cc3cccc(CCCN)c3)n2)cc1` [Example 89, 4-[2-[3-(3-Aminopropyl)benzyl]tetrazol-5-yl]phenyl pivalate Hydrochloride], the IC50 amounted to 170 nM.

Regarding `COc1ccc(COCCCCCn2nnc(-c3ccc(OC(=O)C(C)(C)C)cc3)n2)cc1` [Example 43, 4-[2-[5-(4-Methoxybenzyloxy)pentyl]tetrazol-5-yl]phenyl pivalate], the IC50 was determined as 130 nM.

For `CC(C)(C)C(=O)Oc1ccc(-c2nnn(Cc3ccccc3OCCN)n2)cc1` [Example 84, 4-[2-[2-(2-Aminoethoxy)benzyl]tetrazol-5-yl]phenyl pivalate Hydrochloride], the IC50 was 720 nM.

As for `CNc1ccc(Cn2nnnc2-c2ccc(OC(=O)C(C)(C)C)cc2)cc1` [Example 91, 4-[1-(4-Methylaminobenzyl)tetrazol-5-yl]phenyl pivalate], the IC50 worked out at 580 nM.

For the compound `CC(C)(C)C(=O)Oc1ccc(-c2nnn(Cc3ccc(NC(=O)CN)cc3)n2)cc1` [Example 87, 4-[2-[4-(Glycylamino)benzyl]tetrazol-5-yl]phenyl pivalate Hydrochloride], the IC50 stood at 58 nM.

Take `CC(C)(C)C(=O)Oc1ccc(-c2nnn(Cc3ccccc3[N+](=O)[O-])n2)cc1` [Example 27, 4-[2-(2-Nitrobenzyl)tetrazol-5-yl]phenyl pivalate]: the IC50 amounted to 90 nM.

Regarding `CC(C)(C)C(=O)Oc1ccc(-c2nnn[nH]2)cc1` [Example 3, 4-(1H-Tetrazol-5-yl)phenyl pivalate], the IC50 is 2000 nM.

As to `CC(C)(C)C(=O)Oc1ccc(-c2nnn(Cc3cccc([N+](=O)[O-])c3)n2)cc1` [Example 26, 4-[2-(3-Nitrobenzyl)tetrazol-5-yl]phenyl pivalate], the IC50 worked out at 270 nM.

Consider `CC(C)(C)C(=O)Oc1ccc(-c2nnn(Cc3ccc(OCC(=O)O)cc3)n2)cc1` [Example 83, 4-[5-(4-Pivaloyloxyphenyl)tetrazol-2-ylmethyl]phenoxyacetic acid], for which the IC50 stood at 84 nM.

On to `CN(C(=O)OC(C)(C)C)c1ccc(Cn2nnc(-c3ccc(OC(=O)C(C)(C)C)cc3)n2)cc1` [Example 39, 4-[2-[4-(N-t-Butoxycarbonyl-N-methylamino)benzyl]tetrazol-5-yl]phenyl pivalate], for which the IC50 came to 80 nM.

As for `CC(C)(C)C(=O)Oc1ccc(-c2nnn(C(C(=O)NCC(=O)O)c3ccccc3)n2)cc1` (stereo not drawn) [Example 70, N-[2-Phenyl-2-[5-(4-pivaloyloxyphenyl)tetrazol-2-yl]acetyl]glycine], the IC50 was 1000 nM.

`CN(C)c1ccc(Cn2nnnc2-c2ccc(OC(=O)C(C)(C)C)cc2)cc1` [Example 99, 4-[1-[4-(Dimethylamino)benzyl]tetrazol-5-yl]phenyl pivalate]: the IC50 was found to be 340 nM.

Turning to `CC(C)(C)C(=O)Oc1ccc(-c2nnn(Cc3ccc(N4CCCC4)cc3)n2)cc1` [Example 50, 4-[2-(4-Pyrrolidinobenzyl)tetrazol-5-yl]phenyl pivalate], the IC50 is 1700 nM.

For `CC(C)(C)C(=O)Oc1ccc(-c2nnn(Cc3ccc(OCCN)cc3)n2)cc1` [Example 86, 4-[2-[4-(2-Aminoethoxy)benzyl]tetrazol-5-yl]phenyl pivalate Hydrochloride], the IC50 was determined as 80 nM.

Regarding `CC(C)(C)C(=O)Oc1ccc(-c2nnn(Cc3ccccc3NS(C)(=O)=O)n2)cc1` [Example 79, 4-[2-[2-(Methylsulfonylamino)benzyl]tetrazol-5-yl]phenyl pivalate], the IC50 was found to be 140 nM.

Regarding `CC(C)(C)C(=O)Oc1ccc(-c2nnn(CCO)n2)cc1` [Example 72, 4-[2-(2-Hydroxyethyl)tetrazol-5-yl]phenyl pivalate], the IC50 was found to be 500 nM.

As to `CC(=O)c1ccc(Cn2nnc(-c3ccc(OC(=O)C(C)(C)C)cc3)n2)cc1` [Example 29, 4-[2-(4-Acetylbenzyl)tetrazol-5-yl]phenyl pivalate], the IC50 was found to be 100 nM.

Turning to `CN(C)c1cccc(Cn2nnc(-c3ccc(OC(=O)C(C)(C)C)cc3)n2)c1` [Example 100, 4-[2-[3-(Dimethylamino)benzyl]tetrazol-5-yl]phenyl pivalate], the IC50 came out at 250 nM.

As to `CC(C)(C)OC(=O)NCCn1nnc(-c2ccc(OC(=O)C(C)(C)C)cc2)n1` [Example 45, 4-[2-[2-(t-Butoxycarbonylamino)ethyl]tetrazol-5-yl]phenyl pivalate], the IC50 worked out at 130 nM.

In the case of `COc1cc(-c2nnn(Cc3cccc(OCCN)c3)n2)ccc1OC(=O)C(C)(C)C` [Example 88, 4-[2-[3-(2-Aminoethoxy)benzyl]tetrazol-5-yl]-2-methoxyphenyl pivalate Hydrochloride], the IC50 was 650 nM.

`CC(C)(C)OC(=O)COc1cccc(Cn2nnc(-c3ccc(OC(=O)C(C)(C)C)cc3)n2)c1` [Example 31, t-Butyl 3-[5-(4-pivaloyloxyphenyl)tetrazol-2-ylmethyl]phenoxyacetate]: the IC50 came to 100 nM.

As to `CC(C)(C)C(=O)Oc1ccc(-c2nnn(Cc3ccc(C(=O)N[C@@H](CCC(=O)O)C(=O)O)cc3)n2)cc1` [Example 61, N-[4-[5-(4-Pivaloyloxyphenyl)tetrazol-2-ylmethyl]benzoyl]-L-glutamic acid], the IC50 stood at 30 nM.

`CC(C)(C)OC(=O)COc1ccccc1Cn1nnc(-c2ccc(OC(=O)C(C)(C)C)cc2)n1` [Example 30, t-Butyl 2-[5-(4-pivaloyloxyphenyl)tetrazol-2-ylmethyl]phenoxyacetate]: the IC50 was 380 nM.

`CC(C)(C)C(=O)Oc1ccc(-c2nnn(CCN)n2)cc1` [Example 92, 4-[2-(2-Aminoethyl)tetrazol-5-yl]phenyl pivalate Hydrochloride]: the IC50 was 1600 nM.

`CC(C)(C)C(=O)Oc1ccc(-c2nnn(Cc3ccc(C(=O)NCCCCCC(=O)O)cc3)n2)cc1` [Example 68, 6-[N-[4-[5-(4-Pivaloyloxyphenyl)tetrazol-2-ylmethyl]benzoyl]amino]caproic acid]: the IC50 worked out at 200 nM.

Consider `CC(C)(C)C(=O)Oc1ccc(-c2nnn(Cc3ccc(CC(=O)O)cc3)n2)cc1` [Example 53, 4-[5-(4-Pivaloyloxyphenyl)tetrazol-2-ylmethyl]phenylacetic acid], for which the IC50 came to 110 nM.

`CN(C)c1ccccc1Cn1nnc(-c2ccc(OC(=O)C(C)(C)C)cc2)n1` [Example 101, 4-[2-[2-(Dimethylamino)benzyl]tetrazol-5-yl]phenyl pivalate]: the IC50 amounted to 380 nM.

For `CCCN(C)c1ccc(Cn2nnc(-c3ccc(OC(=O)C(C)(C)C)cc3)n2)cc1` [Example 98, 4-[2-[4-(Methylpropylamino)benzyl]tetrazol-5-yl]phenyl pivalate], the IC50 came to 150 nM.

For the compound `CC(C)(C)OC(=O)Cn1nnc(-c2ccc(OC(=O)C(C)(C)C)cc2)n1` [Example 10, 4-[2-(t-Butoxycarbonylmethyl)tetrazol-5-yl]phenyl pivalate], the IC50 is 800 nM.

As to `CC(C)(C)C(=O)Oc1ccc(-c2nnn(Cc3cccc(N)c3)n2)cc1` [Example 77, 4-[2-(3-Aminobenzyl)tetrazol-5-yl]phenyl pivalate], the IC50 was determined as 150 nM.

Consider `CC(C)(C)C(=O)Oc1ccc(-c2nnn(Cc3ccc(C(=O)NCC(=O)O)cc3)n2)cc1` [Example 58, N-[4-[5-(4-pivaloyloxyphenyl)tetrazol-2-ylmethyl]benzoyl]glycine], for which the IC50 was 29 nM.

With `COc1cc(-c2nnn(Cc3ccc(C(=O)O)cc3)n2)ccc1OC(=O)C(C)(C)C` [Example 56, 4-[5-(3-Methoxy-4-pivaloyloxyphenyl)tetrazol-2-ylmethyl]benzoic acid], the IC50 turned out to be 420 nM.
